Assays:
[1] = tested on: CD34+CD45RA− cells; assay: Dose-response assay: 50% increase in CD34+CD45RA− cell count vs vehicle (EC50); assay type: cell-based, human; settings: concentration giving 50% increase in CD34+CD45RA− cell count vs vehicle (DMSO), dose-response 1 nM to 5000 nM; for EC50: Homo sapiens, read-out: Biological data (EC50)*
Method: The following biological assays were used to assess the effect of the compounds of the invention on hematopoietic stem cell expansion. Culture medium: The culture medium used consisted of serum-free medium supplemented with the following recombinant cytokines: interleukin-6, thrombopoietin, Flt-3 ligand, and stem cell factor, each at a final concentration of 100 ng/ml, in the presence of vehicle (DMSO), positive control (SR1), or compound of the invention or a combination of compounds.

[2] = tested on: Mobilized peripheral blood CD34(+) cells; assay: Growth factor (Flt3, SCF, TPO) requirement / mitogen test (FIG. 3); assay type: cell-based, human
Method: FIG. 3: Flt3, SCF, and TPO are required for compound 1 mediated stem cell expansion. Mobilized peripheral blood CD34(+) cells were cultured for 7 days in the presence or absence of the growth factors (Flt3+SCF+TPO).
This indicate that akin to SR1, Compound 1's effect on maintenance of primitive HSC phenotype ex vivo is not due to a mitogenic effect on this population but rather on the prevention of cell differentiation.

[3] = tested on: CD34+ mobilized peripheral blood cells; assay: FACS analysis of differentiation of CD34+ mobilized peripheral blood cells (FIG. 4A); assay type: cell-based, human; settings: 7 day expansion, optimal levels, vs DMSO control
Description: FIG. 4A illustrates the impact of Compound 1 on mobilized peripheral blood cell differentiation. Following a 7 day expansion, a relatively pure (>85% CD34^+) population of mobilized peripheral blood was exposed to control the (DMSO) or Compound 1 or SR1 or Compound 1+SR1.

[4] = tested on: CD34+ mobilized peripheral blood (mPB) cells; assay: Ex vivo expansion of mobilized peripheral blood-derived CD34+ and CD34+CD45RA− cells (FIG. 5A); assay type: cell-based, human; settings: 12-days culture
Description: FIG. 5: A) Compound 1 expands mobilized peripheral blood-derived CD34+ and CD34+CD45RA− cell populations ex vivo. […] This observation was enhanced with the co-treatment with SR1.
[…]. The level of expansion is the same whether cultures are initiated with Compound 1, SR1, Compound 1+SR1, or control DMSO. […] […].

[5] = tested on: CD34+CD45RA− cord blood cells; assay: Ex vivo expansion of cord blood-derived CD34+ and CD34+CD45RA− cells (FIG. 5B, 5C); assay type: cell-based, human; settings: cord blood
[6] = tested on: CD34+ mPB cells transplanted in NSG mice; assay: Engraftment of cultured CD34+ mPB cells in NSG mice; settings: cells cultured ten days; outcome of 50,000 and 500,000 cells; 13 week post-transplantation
[7] = tested on: CD34+ CB cells transplanted in NSG mice; assay: Engraftment of cultured CD34+ cord blood cells in NSG mice (FIG. 7); settings: outcome of 5,000 CD34+ CB cells, 7 days culture; 8-weeks post transplantation (FIG. 7A)
Description: These experiments were done in short term cultures i.e. 7 days.

COC(=O)c1ccc2c(c1)[nH]c1nc(Cc3cccc(C(O)C(F)(F)F)c3)nc(NCCCN3CCCCC3)c12 (stereo not shown) [Compound 34, methyl 4-((3-(piperidin-1-yl)propyl)amino)-2-(3-(2,2,2-trifluoro-1-hydroxyethyl)benzyl)-9H-pyrimido[4,5-b]indole-7-carboxylate]
EC50 [1]: < 100 nM

COC(=O)c1ccc2c(c1)[nH]c1nc(Cc3ccccc3)nc(NCCCN(C)CCCNc3nc(Cc4ccccc4)nc4[nH]c5cc(C(=O)OC)ccc5c34)c12 [Compound 51, dimethyl 4,4′-(((methylazanediyl)bis(propane-3,1-diyl))bis(azanediyl))bis(2-benzyl-9H-pyrimido[4,5-b]indole-7-carboxylate)]
EC50 [1]: < 100 nM

COC(=O)c1ccc2c(c1)[nH]c1nc(Cc3cccc(C4(C(F)(F)F)N=N4)c3)nc(NCCCN(C)CCCNC(=O)CCCC[C@@H]3SC[C@@H]4NC(=O)N[C@@H]43)c12 [Compound 53, methyl 4-((3-(methyl(3-(5-((3aS,4S,6aR)-2-oxohexahydro-1H-thieno[3,4-d]imidazol-4-yl)pentanamido)propyl)amino)propyl)amino)-2-(3-(3-(trifluoromethyl)-3H-diazirin-3-yl)benzyl)-9H-pyrimido[4,5-b]indole-7-carboxylate]
Biological data (EC50)* [1]: F (F=compound showed >1.3 fold expansion)

CC(C)n1cnc2c(NCCc3ccc(O)cc3)nc(-c3csc4ccccc34)nc21 [SR1, StemRegenin1, reference compound]
induction of cell proliferation in the absence of growth factors (Flt3, TPO, SCF) [2]: not able to induce cell proliferation | loss of CD34 cell surface expression [3]: partly abrogated | total cell count increase above the input [4]: about 20 fold | expansion of CD34+CD45RA− cells ([5]; 12-days): less than 20 fold | total cell expansion vs DMSO (control) ([5]; twelve days): the same | human hematopoietic engraftment (human CD45+ cells in BM) [6]: consistently better than DMSO | human CD45+ engraftment / reconstitution activity [7]: human CD45+ engraftment
